Test results taken from US8828908B2, “Herbicidally active bicyclic 1,3-dione compounds” (Syngenta Limited, priority 2007, dated 2014).

Columns and labels:
Format in all cases: in vivo
[1] = tested on: Alopecurus myosuroides (ALOMY); experiment: Example A pre-emergence herbicidal glasshouse test; settings: 312 h, Rate 250 g/ha, evaluated after 13 days, 100=total damage to plant, 0=no damage to plant
Experimental: (§1) Seeds of a variety of test species were sown in standard soil in pots. After cultivation for one day (pre-emergence) or after 8 days cultivation (post-emergence) under controlled conditions in a glasshouse (at 24/16° C., day/night; 14 hours light; 65% humidity), the plants were sprayed with an aqueous spray solution derived from the formulation of the technical active ingredient in acetone/water (50:50) solution containing 0.5% Tween 20 (polyoxyethelyene sorbitan monolaurate, CAS RN 9005-64-5). The test plants were then grown in a glasshouse under controlled conditions in a glasshouse (at 24/16° C., day/night; 14 hours light; 65% humidity) and watered twice daily. After 13 days for pre and post-emergence, the test was evaluated (100=total damage to plant; 0=no damage to plant).
(§2) Alopecurus myosuroides (ALOMY), Avena fatua (AVEFA), Setaria faberi (SETFA), Echinochloa crus-galli (ECHCG), Solanum nigrum (SOLNI) and Amaranthus retroflexus (AMARE)

[2] = tested on: Amaranthus retroflexus (AMARE); experiment: Example A pre-emergence herbicidal glasshouse test; settings: 312 h, Rate 250 g/ha, evaluated after 13 days, 100=total damage to plant, 0=no damage to plant
Experimental: as §1, §2

Avena fatua (AVEFA) [3] = experiment: Example A pre-emergence herbicidal glasshouse test; settings: 312 h, Rate 250 g/ha, evaluated after 13 days, 100=total damage to plant, 0=no damage to plant
Experimental: as §1, §2

[4] = tested on: Echinochloa crus-galli (ECHCG); experiment: Example A pre-emergence herbicidal glasshouse test; settings: 312 h, Rate 250 g/ha, evaluated after 13 days, 100=total damage to plant, 0=no damage to plant
Experimental: as §1, §2

Setaria faberi (SETFA) [5] = experiment: Example A pre-emergence herbicidal glasshouse test; settings: 312 h, Rate 250 g/ha, evaluated after 13 days, 100=total damage to plant, 0=no damage to plant
Experimental: as §1, §2

[6] = tested on: Alopecurus myosuroides (ALOMY); experiment: Example A post-emergence herbicidal glasshouse test; settings: 312 h, evaluated after 13 days, 100=total damage to plant, 0=no damage
Experimental: as §1, §2

[7] = tested on: Amaranthus retroflexus (AMARE); experiment: as above; settings: 312 h, evaluated after 13 days, 100=total damage to plant, 0=no damage
Experimental: as §1, §2

Avena fatua (AVEFA) [8] = experiment: as above; settings: 312 h, evaluated after 13 days, 100=total damage to plant, 0=no damage
Experimental: as §1, §2

[9] = tested on: Echinochloa crus-galli (ECHCG); experiment: as above; settings: 312 h, evaluated after 13 days, 100=total damage to plant, 0=no damage
Experimental: as §1, §2

Setaria faberi (SETFA) [10] = experiment: as above; settings: 312 h, evaluated after 13 days, 100=total damage to plant, 0=no damage
Experimental: as §1, §2

Compound	pest or weed control at 250 g/ha [1]	pest or weed control at 250 g/ha [2]	pest or weed control at 250 g/ha (Avena fatua (AVEFA) [3])	pest or weed control at 250 g/ha [4]	pest or weed control at 250 g/ha (Setaria faberi (SETFA) [5])	pest or weed control at 250 g/ha [6]	pest or weed control at 250 g/ha [7]	pest or weed control at 250 g/ha (Avena fatua (AVEFA) [8])	pest or weed control at 250 g/ha [9]	pest or weed control at 250 g/ha (Setaria faberi (SETFA) [10])
Cc1ccc(-c2ccc(F)c(F)c2)cc1C1=C(O)[C@H]2CC[C@H](C2)C1=O (single isomer, unassigned) [Compound T9]	0%	0%	0%	0%	50%	10%	0%	40%	70%	80%
Cc1ccc(-c2ccccc2C)cc1C1=C(O)[C@H]2CC[C@H](C2)C1=O (single isomer, unassigned) [Compound T18]	0%	0%	0%	0%	0%	0%	0%	0%	0%	0%
Cc1cccc(-c2ccc(C)c(C3=C(O)[C@H]4CC[C@H](C4)C3=O)c2)c1 (single isomer, unassigned) [Compound T19]	0%	0%	0%	0%	0%	0%	20%	0%	40%	50%
Cc1ccc(-c2ccc(C)c(C3=C(O)[C@H]4CC[C@H](C4)C3=O)c2)cc1 (single isomer, unassigned) [Compound T20]	10%	0%	0%	40%	0%	20%	0%	0%	60%	50%
Cc1ccc(-c2ccccc2C(F)(F)F)cc1C1=C(O)[C@H]2CC[C@H](C2)C1=O (single isomer, unassigned) [Compound T21]	0%	0%	0%	0%	0%	0%	0%	0%	0%	20%
Cc1ccc(-c2cccc(C(F)(F)F)c2)cc1C1=C(O)[C@H]2CC[C@H](C2)C1=O (single isomer, unassigned) [Compound T22]	0%	0%	0%	20%	10%	0%	0%	0%	20%	50%
Cc1ccc(-c2ccc(C(F)(F)F)cc2)cc1C1=C(O)[C@H]2CC[C@H](C2)C1=O (single isomer, unassigned) [Compound T23]	50%	0%	0%	90%	100%	60%	0%	60%	90%	100%
CCc1ccc(-c2cccc(Cl)c2)cc1C1=C(O)[C@H]2CC[C@H](C2)C1=O (single isomer, unassigned) [Compound T38]	0%	0%	0%	60%	0%	20%	0%	0%	70%	40%
